From patent publication US20250302815A1, “PROTEIN TYROSINE PHOSPHATASE TARGETING LIGANDS” (CALICO LIFE SCIENCES LLC, priority 2021, published 2025)

Columns and labels:
[1] = target: T1, PTPN2 (HiBIT-PTPN2 in 293T.109 cells) (Homo sapiens, UniProt P17706); assay: HiBiT Degradation 293T.109 PTPN2 (Nano-Glo HiBiT Lytic Assay); type: cell-based; conditions: 24.0 hours
T1 construct: expressed in transfected cells; host or cells: 293T.109 (293T WT from ATCC)
T1 sequence (P17706 1-415): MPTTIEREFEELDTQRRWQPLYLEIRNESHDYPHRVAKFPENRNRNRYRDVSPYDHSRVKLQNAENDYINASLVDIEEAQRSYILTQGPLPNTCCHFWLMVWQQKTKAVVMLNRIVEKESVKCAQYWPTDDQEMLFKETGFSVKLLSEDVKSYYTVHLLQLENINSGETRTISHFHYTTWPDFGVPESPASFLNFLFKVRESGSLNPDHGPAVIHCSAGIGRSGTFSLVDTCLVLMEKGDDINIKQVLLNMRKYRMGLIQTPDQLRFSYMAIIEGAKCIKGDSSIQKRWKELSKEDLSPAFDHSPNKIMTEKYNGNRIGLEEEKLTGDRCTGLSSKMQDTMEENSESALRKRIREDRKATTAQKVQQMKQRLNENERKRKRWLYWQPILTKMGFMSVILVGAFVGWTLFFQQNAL
Procedure, shortened: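 Degradation read-out: lytic HiBiT luminescence after 24 h treatment (37 °C, 5% CO2) of 5000 293T cells per well expressing HiBiT-fused PTPN2 from an N-terminal tag. Dosing was 11 points, half-log steps down from 10 μM, in duplicate; vehicle-treated and no-reagent wells served as controls.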

[2] = target: T2, PTPN2 (B16F10.4 cells) (Mus musculus, UniProt Q06180); assay: HiBiT Degradation B16F10.4 PTPN2; type: cell-based; conditions: 24.0 hours
T2 construct: HiBiT; host or cells: B16F10.4
T2 sequence (Q06180 1-406): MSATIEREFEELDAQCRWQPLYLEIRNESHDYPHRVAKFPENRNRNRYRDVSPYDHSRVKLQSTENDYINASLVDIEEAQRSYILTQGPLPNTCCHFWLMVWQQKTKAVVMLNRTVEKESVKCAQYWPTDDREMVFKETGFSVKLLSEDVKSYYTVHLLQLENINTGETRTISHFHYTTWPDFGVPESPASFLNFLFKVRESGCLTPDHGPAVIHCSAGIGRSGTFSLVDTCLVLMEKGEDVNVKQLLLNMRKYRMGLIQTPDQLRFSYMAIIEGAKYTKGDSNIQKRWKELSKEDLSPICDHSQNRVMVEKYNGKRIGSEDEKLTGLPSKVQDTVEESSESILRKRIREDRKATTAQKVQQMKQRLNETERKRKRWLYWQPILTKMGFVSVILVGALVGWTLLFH

CCn1nc(C2CCC(=O)NC2=O)c2ccc(C3CCN(C(=O)Nc4cccc(CS(=O)(=O)N5CC[C@H](Nc6cccc(-c7sc(C(=O)O)c(OCC(=O)O)c7Cl)c6)CC5(C)C)c4)CC3(F)F)cc21 (stereo partly drawn) [Example 200, 3-(carboxymethoxy)-4-chloro-5-[3-[[(4S)-1-[[3-[[4-[3-(2,6-dioxo-3-piperidyl)-1-ethyl-indazol-6-yl]-3,3-difluoro-piperidine-1-carbonyl]amino]phenyl]methylsulfonyl]-2,2-dimethyl-4-piperidyl]amino]phenyl]thiophene-2-carboxylic acid]
DC50 [1]: 50 to 200 nM | DC50 [2]: 50 to 200 nM

CC1(C)C[C@@H](Nc2cccc(-c3sc(C(=O)O)c(OCC(=O)O)c3Cl)c2)CCN1S(=O)(=O)Cc1cccc(NCCNCCCc2ccc3c4c(cccc24)C(=O)N3C2CCC(=O)NC2=O)c1 (stereo partly drawn) [Example 201]
DC50 [1]: 50 to 200 nM | DC50 [2]: 50 to 200 nM

CC1(C)C[C@@H](Nc2cccc(-c3sc(C(=O)O)c(OCC(=O)O)c3Cl)c2)CCN1S(=O)(=O)Cc1cccc(N2CCN(CCCc3ccc4c5c(cccc35)C(=O)N4C3CCC(=O)NC3=O)C2=O)c1 (stereo partly drawn) [Example 202]
DC50 [1]: 200 to 1000 nM | DC50 [2]: 50 to 200 nM

Cn1c(=O)n(C2CCC(=O)NC2=O)c2ccc(C3CCCN(C(=O)Nc4cccc(CS(=O)(=O)N5CC[C@H](Nc6cccc(-c7sc(C(=O)O)c(OCC(=O)O)c7Cl)c6)CC5(C)C)c4)C3)cc21 (stereo partly drawn) [Example 203, 3-(carboxymethoxy)-4-chloro-5-[3-[[(4S)-1-[[3-[[3-[1-(2,6-dioxo-3-piperidyl)-3-methyl-2-oxo-benzimidazol-5-yl]piperidine-1-carbonyl]amino]phenyl]methylsulfonyl]-2,2-dimethyl-4-piperidyl]amino]phenyl]thiophene-2-carboxylic acid]
DC50 [1]: 200 to 1000 nM | DC50 [2]: 50 to 200 nM

CC(C)n1c(=O)n(C2CCC(=O)NC2=O)c2ccc(C3CCN(CC(=O)Nc4cccc(CS(=O)(=O)N5CC[C@H](Nc6cccc(-c7sc(C(=O)O)c(OCC(=O)O)c7Cl)c6)CC5(C)C)c4)CC3)cc21 (stereo partly drawn) [Example 204, 3-(carboxymethoxy)-4-chloro-5-(3-(((4S)-1-((3-(2-(4-(1-(2,6-dioxopiperidin-3-yl)-3-isopropyl-2-oxo-2,3-dihydro-1H-benzo[d]imidazol-5-yl)piperidin-1-yl)acetamido)benzyl)sulfonyl)-2,2-dimethylpiperidin-4-yl)amino)phenyl)thiophene-2-carboxylic acid]
DC50 [1]: 50 to 200 nM | DC50 [2]: 50 to 200 nM

CC1(C)C[C@@H](Nc2cccc(-c3sc(C(=O)O)c(OCC(=O)O)c3Cl)c2)CCN1S(=O)(=O)Cc1cccc(NC(=O)N2CCC(c3ccc4c5c(cccc35)N(C3CCC(=O)NC3=O)C4=O)CC2)c1 (stereo partly drawn) [Example 205, 3-(carboxymethoxy)-4-chloro-5-[3-[[(4S)-1-[[3-[[4-[1-(2,6-dioxo-3-piperidyl)-2-oxo-benzo[cd]indol-S-yl]piperidine-1-carbonyl]amino]phenyl]methylsulfonyl]-2,2-dimethyl-4-piperidyl]amino]phenyl]thiophene-2-carboxylic acid]
DC50 [1]: 50 to 200 nM | DC50 [2]: 50 to 200 nM

CC1(C)C[C@H](Nc2cccc(-c3sc(C(=O)O)c(OCC(=O)O)c3Cl)c2)CCN1S(=O)(=O)Cc1cccc(NC(=O)N2CCC(c3ccc4c(c3)n(C3COC3)c(=O)n4C3CCC(=O)NC3=O)CC2)c1 (stereo partly drawn) [Example 206, 3-(carboxymethoxy)-4-chloro-5-(3-(((4R)-1-((3-(4-(1-(2,6-dioxopiperidin-3-yl)-3-(oxetan-3-yl)-2-oxo-2,3-dihydro-1H-benzo[d]imidazol-5-yl)piperidine-1-carboxamido)benzyl)sulfonyl)-2,2-dimethylpiperidin-4-yl)amino)phenyl)thiophene-2-carboxylic acid]
DC50 [1]: 200 to 1000 nM | DC50 [2]: 50 to 200 nM

Cn1c(=O)n(C2CCC(=O)NC2=O)c2ccc(C3CCN(C(=O)Nc4cccc(CS(=O)(=O)N5CC[C@H](Nc6cccc(-c7sc(C(=O)O)c(OCC(=O)O)c7Cl)c6)CC5(C)C)c4)CC3)c(Cl)c21 (stereo partly drawn) [Example 207, 3-(carboxymethoxy)-4-chloro-5-[3-[[(4S)-1-[[3-[[4-[4-chloro-1-(2,6-dioxo-3-piperidyl)-3-methyl-2-oxo-benzimidazol-5-yl]piperidine-1-carbonyl]amino]phenyl]methylsulfonyl]-2,2-dimethyl-4-piperidyl]amino]phenyl]thiophene-2-carboxylic acid]
DC50 [1]: 50 to 200 nM | DC50 [2]: 50 to 200 nM

Cc1cc2cc(C3CCN(C(=O)Nc4cccc(CS(=O)(=O)N5CC[C@H](Nc6cccc(-c7sc(C(=O)O)c(OCC(=O)O)c7Cl)c6)CC5(C)C)c4)CC3)ccc2n1C1CCC(=O)NC1=O (stereo partly drawn) [Example 208, 3-(carboxymethoxy)-4-chloro-5-[3-[[(4S)-1-[[3-[[4-[1-(2,6-dioxo-3-piperidyl)-2-methyl-indol-5-yl]piperidine-1-carbonyl]amino]phenyl]methylsulfonyl]-2,2-dimethyl-4-piperidyl]amino]phenyl]thiophene-2-carboxylic acid]
DC50 [1]: 200 to 1000 nM | DC50 [2]: 200 to 1000 nM

C[C@@H]1CN(C(=O)Nc2cccc(CS(=O)(=O)N3CC[C@H](Nc4cccc(-c5sc(C(=O)O)c(OCC(=O)O)c5Cl)c4)CC3(C)C)c2)CCN1c1ccc2c(c1)n(C)c(=O)n2C1CCC(=O)NC1=O (stereo partly drawn) [Example 209, 3-(carboxymethoxy)-4-chloro-5-[3-[[(4S)-1-[[3-[[(3R)-4-[1-(2,6-dioxo-3-piperidyl)-3-methyl-2-oxo-benzimidazol-5-yl]-3-methyl-piperazine-1-carbonyl]amino]phenyl]methylsulfonyl]-2,2-dimethyl-4-piperidyl]amino]phenyl]thiophene-2-carboxylic acid]
DC50 [1]: 50 to 200 nM | DC50 [2]: 50 to 200 nM

C[C@H]1CN(C(=O)Nc2cccc(CS(=O)(=O)N3CC[C@H](Nc4cccc(-c5sc(C(=O)O)c(OCC(=O)O)c5Cl)c4)CC3(C)C)c2)CCN1c1ccc2c(c1)n(C)c(=O)n2C1CCC(=O)NC1=O (stereo partly drawn) [Example 210]
DC50 [1]: 50 to 200 nM | DC50 [2]: 50 to 200 nM

Cc1cn(C2CCC(=O)NC2=O)c2ccc(C3CCN(C(=O)Nc4cccc(CS(=O)(=O)N5CC[C@H](Nc6cccc(-c7sc(C(=O)O)c(OCC(=O)O)c7Cl)c6)CC5(C)C)c4)CC3)cc12 (stereo partly drawn) [Example 211, 3-(carboxymethoxy)-4-chloro-5-[3-[[(4S)-1-[[3-[[4-[1-(2,6-dioxo-3-piperidyl)-3-methyl-indol-5-yl]piperidine-1-carbonyl]amino]phenyl]methylsulfonyl]-2,2-dimethyl-4-piperidyl]amino]phenyl]thiophene-2-carboxylic acid]
DC50 [1]: 200 to 1000 nM | DC50 [2]: 200 to 1000 nM

Cn1c(=O)n(C2CCC(=O)NC2=O)c2ccc(C3CN(C(=O)Nc4cccc(CS(=O)(=O)N5CC[C@H](Nc6cccc(-c7sc(C(=O)O)c(OCC(=O)O)c7Cl)c6)CC5(C)C)c4)CCC3F)cc21 (stereo partly drawn) [Example 212, 3-(carboxymethoxy)-4-chloro-5-[3-[[(4S)-1-[[3-[[3-[1-(2,6-dioxo-3-piperidyl)-3-methyl-2-oxo-benzimidazol-5-yl]-4-fluoro-piperidine-1-carbonyl]amino]phenyl]methylsulfonyl]-2,2-dimethyl-4-piperidyl]amino]phenyl]thiophene-2-carboxylic acid]
DC50 [1]: 200 to 1000 nM | DC50 [2]: 50 to 200 nM

Cn1c(=O)n(C2CCC(=O)NC2=O)c2ccc([C@@H]3CN(C(=O)Nc4cccc(CS(=O)(=O)N5CC[C@H](Nc6cccc(-c7sc(C(=O)O)c(OCC(=O)O)c7Cl)c6)CC5(C)C)c4)CC[C@H]3F)cc21 (stereo partly drawn) [Example 213, 3-(carboxymethoxy)-4-chloro-5-[3-[[(4S)-1-[[3-[[(3R,4R)-3-[1-(2,6-dioxo-3-piperidyl)-3-methyl-2-oxo-benzimidazol-5-yl]-4-fluoro-piperidine-1-carbonyl]amino]phenyl]methylsulfonyl]-2,2-dimethyl-4-piperidyl]amino]phenyl]thiophene-2-carboxylic acid]
DC50 [1]: ≥ 1000 nM | DC50 [2]: 50 to 200 nM

Cn1c(=O)n(C2CCC(=O)NC2=O)c2ccc([C@H]3CN(C(=O)Nc4cccc(CS(=O)(=O)N5CC[C@H](Nc6cccc(-c7sc(C(=O)O)c(OCC(=O)O)c7Cl)c6)CC5(C)C)c4)CC[C@@H]3F)cc21 (stereo partly drawn) [Example 214, 3-(carboxymethoxy)-4-chloro-5-[3-[[(4S)-1-[[3-[[(3S,4S)-3-[1-(2,6-dioxo-3-piperidyl)-3-methyl-2-oxo-benzimidazol-5-yl]-4-fluoro-piperidine-1-carbonyl]amino]phenyl]methylsulfonyl]-2,2-dimethyl-4-piperidyl]amino]phenyl]thiophene-2-carboxylic acid]
DC50 [1]: 200 to 1000 nM | DC50 [2]: 50 to 200 nM
